Legend:
HCT116 cells = assay: Cell proliferation inhibition assay, HCT116; type: cell-based; settings: Homo sapiens, HCT-116, 120 h; 5 days, viable cells counted
Protocol: (§1) Cell proliferation inhibition assay-Cell proliferation inhibition assay was performed as previously reported (48). All compounds to be tested were dissolved at 10 mM in DMSO. The cells were seeded into 12-well plates at a density of 40,000 cells per well in 1 mL of culture medium and were cultured overnight at 37° C. Either 1 μL of the compounds or the vehicle control (DMSO) was added to the cells. After 5 days, the medium was removed, and 200 μL of 0.25% trypsin was added. The cells were resuspended in 800 μL phosphate-buffered saline (PBS) and counted with Vi-CELL XR 2.03 (Beckman Coulter, Inc. USA). The ratio R of the number of viable cells in the compound-treated group to the number of viable cells in the DMSO-treated group was called relative growth rate, and the growth inhibition was calculated as (1−R)*100.
(§2) Cell proliferation inhibition assay was conducted according to a previous report (48). The cells were split into 12-well plates at a density of 40,000 cells per well in 1 mL of culture medium and were cultured overnight at 37° C. Either 1 μL of the compounds dissolved at 10 mmol/L in DMSO or the vehicle control (DMSO) was added to the cells. After 5 days, removed the medium, and 200 μL of 0.25% trypsin was added. The cells were resuspended in phosphate-buffered saline (PBS) and counted with Vi-CELL XR 2.03 (Beckman Coulter, Inc. USA). The ratio R of the number of viable cells in the compound treatment group to the number of viable cells in the DMSO treatment group was defined as the relative growth rate, and the growth inhibition rate was calculated as (1−R)*100.

LS174T cells [1] = assay: Cell proliferation inhibition assay, LS174T; type: cell-based; settings: for IC50: Homo sapiens, LS174T, 120 h, 5 days, viable cells counted
Protocol: as §1, §2

LS174T cells [2] = assay: Apoptosis by flow cytometry (Annexin V-FITC/PI); type: cell-based; settings: 24 h, DBI-6 3 μM, BAY-876 1 μM, DMSO 17.28%
Protocol: LS174T cells were cultured in 6-well plates at 37° C. for 24 hours. 3 μmol/L DBI-6 or 1 μmol/L BAY-876 were added to the cells and incubated for 24 hours. Cells of combination therapy group were treated with both DBI-6 and BAY-876. Then cells were harvested and washed with cold PBS twice and resuspended in 500 μL Binding Buffer. SubsequenμLy, the cells were stained with Annexin V-FITC and propidium iodide (PI) and incubated in dark for 5 minutes. The percentages of apoptosis and necrosis were determined by flow cytometry (BeckmanCoulter, Brea, CA, USA).

LS174T xenografts = LS174T xenografts in Rag1 mice; type: in vivo, mouse; settings: DBI-6 40 mg/kg/day IP, BAY-876 3 mg/kg oral, 12 days
Excerpt: Rag1 mice of 6 to 8 weeks of age were kindly provided by Institute of Genetics and Developmental Biology, Chinese Academy of sciences. LS174T cells in exponential growth phase were harvested and mixed with an equal volume of Matrigel (Corning, Glendale, Arizona). Each mouse was subcutaneously injected on the lower flanks with 2×10^6 cells. Tumor cell-injected mice were randomly divided into control and treatment groups when tumors were established and reached an average volume of 100 mm^3 (3 male and 3 female mice/group, two tumors on each mouse).
After tumors were established, DBI-6 was formulated in a mixture of ethanol (5%), 20% solutol and 20% Cremophor EL (50%) and Citric acid (45%; 50 mmol/L, pH4.5) and was daily intraperitoneally administered to the DBI-6 group at dose of 40 mg/kg mouse body weight. BAY-876 was dissolved in DMSO (10%), PEG400 (25%), Tween 80 (5%) and PBS (60%) and was given to the mice by gavage feeding to the BAY-876 group at a daily dose of 3 mg/kg mouse body weight. […]
The tumor sizes and mouse weights were measured every three days with calipers, and the tumor volume (Length×width^2/2) were calculated. […] Then the tumor sections were analyzed with H&E and Ki-67 staining. Plasma was collected and analyzed with the assay kit (Jiancheng Bioengineering Institute, Nanjing, China) according to the manufacturer's protocol. […]

Row | Structure (SMILES) | IC50 (HCT116 cells) [nM] | inhibition of proliferation of LS174T cells (LS174T cells [1]) | IC50 (LS174T cells [1]) [nM] | apoptosis rate (percentage of apoptotic cells) (LS174T cells [2]) [%] | tumor growth (LS174T xenografts)
1 | Cc1c(NC(=O)c2cc(C(N)=O)nc3cc(F)ccc23)c(C(F)(F)F)nn1Cc1ccc(C#N)cc1 [BAY-876, N^4-[1-(4-cyanobenzyl)-5-methyl-3-(trifluoromethyl)-1H-pyrazol-4-yl]-7-fluoroquinoline-2,4-dicarboxamide] | 170 | inhibited the proliferation of these cell lines at nanomolar concentrations | 130 | 34.57 | Tumor growth was inhibited
2 | O=c1c(-c2ccc(Cl)c(Cl)c2)coc2cc(OCCN3CCN(CCO)CC3)ccc12 [DBI-6, 3-(3,4-dichlorophenyl)-7-(2-(4-(2-hydroxyethyl)piperazin-1-yl)ethoxy)-4H-chromen-4-one] | 530 |  | 1140 | 30.61 | Tumor growth was inhibited
